# Data: ChEMBL document CHEMBL4130518, “Apratoxin S10, a Dual Inhibitor of Angiogenesis and Cancer Cell Growth To Treat Highly Vascularized Tumors” (ACS Med Chem Lett, 2017)
# The source made the active and inactive calls. No cut-off for these calls is given here.
# Tests used:
# [1] = Half life in KCl/HCl buffer at pH 2.32 after 24 hrs by HPLC-MS analysis; assay type: physicochemical
# [2] = system: HCT-116; experiment: Antiproliferative activity against human HCT116 cells after 48 hrs by MTT assay; assay type: functional, cell-based; conditions: HCT-116, 48 h
# [3] = system: A498; experiment: Antiproliferative activity against human A498 cells after 48 hrs by MTT assay; assay type: functional, cell-based; conditions: A498, 48 h
# [4] = system: Huh-7; experiment: Antiproliferative activity against human HuH7 cells after 48 hrs by MTT assay; assay type: functional, cell-based; conditions: Huh-7, 48 h
# [5] = system: NCI-H727; experiment: Antiproliferative activity against human NCI-H727 cells after 48 hrs by MTT assay; assay type: functional, cell-based; conditions: NCI-H727, 48 h
# [6] = system: HUVEC; experiment: Antiangiogenic activity in HUVEC assessed as inhibition of tube like structures formation at 10 pM to 1 uM after 14 hrs by matrigel based inverted microscopy; assay type: functional, cell-based; conditions: Homo sapiens
# [7] = system: HUVEC; experiment: Antiangiogenic activity in HUVEC assessed as inhibition of tube like structures formation at 100 nM to 1 uM after 14 hrs by matrigel based inverted microscopy; assay type: functional, cell-based; conditions: Homo sapiens
# [8] = system: HUVEC; experiment: Antiangiogenic activity in HUVEC assessed as inhibition of tube like structures formation at < 100 nM after 14 hrs by matrigel based inverted microscopy; assay type: functional, cell-based; conditions: Homo sapiens
# [9] = system: HUVEC; experiment: Antiangiogenic activity in HUVEC assessed as inhibition of tube like structures formation after 14 hrs by matrigel based inverted microscopy; assay type: functional, cell-based; conditions: Homo sapiens
# [10] = system: HUVEC; experiment: Antiangiogenic activity in HUVEC assessed as diminishing of branch points at 10 pM after 14 hrs by inverted microscopy; assay type: functional, cell-based; conditions: Homo sapiens
# [11] = system: HUVEC; experiment: Antiangiogenic activity in HUVEC assessed as decrease in number of junctions at 10 pM after 14 hrs by branch point counting analysis; assay type: functional, cell-based; conditions: Homo sapiens
# [12] = system: HUVEC; experiment: Cytotoxicity against HUVEC assessed as decrease in cell viability after 48 hrs by MTT assay; assay type: functional, cell-based; conditions: Homo sapiens
# [13] = system: HUVEC; experiment: Downregulation of VEGFR2 expression level in HUVEC at >= 10 nM after 14 hrs by immunoblot analysis; assay type: functional, cell-based; conditions: Homo sapiens
# [14] = system: Huh-7; experiment: Inhibition of IL-6 secretion in human HuH7 cells at 10 pM to 1 uM after 24 hrs by AlphaLISA based immuno assay; assay type: functional, cell-based
# [15] = system: A498; experiment: Inhibition of VEGF-A secretion in human A498 cells at 10 pM to 1 uM after 24 hrs by AlphaLISA based immuno assay; assay type: functional, cell-based
# [16] = system: Huh-7; experiment: Inhibition of VEGF-A secretion in human HuH7 cells at 10 pM to 1 uM after 24 hrs by AlphaLISA based immuno assay; assay type: functional, cell-based
# [17] = system: NCI-H727; experiment: Inhibition of VEGF-A secretion in human NCI-H727 cells at 10 pM to 1 uM after 24 hrs by AlphaLISA based immuno assay; assay type: functional, cell-based
# [18] = system: A498; experiment: Inhibition of IL-6 secretion in human A498 cells at 10 pM to 1 uM after 24 hrs by AlphaLISA based immuno assay; assay type: functional, cell-based
# [19] = system: NCI-H727; experiment: Inhibition of IL-6 secretion in human NCI-H727 cells at 10 pM to 1 uM after 24 hrs by AlphaLISA based immuno assay; assay type: functional, cell-based
# [20] = system: NCI-H727; experiment: Downregulation of VEGFR2 in human NCI-H727 cells at 10 pM to 1 uM after 24 hrs by AlphaLISA based immuno assay; assay type: functional, cell-based
# [21] = system: A498; experiment: Downregulation of EGFR in human A498 cells at 10 pM to 1 uM after 24 hrs by AlphaLISA based immuno assay; assay type: functional, cell-based
# [22] = system: A498; experiment: Downregulation of MET in human A498 cells at 10 pM to 1 uM after 24 hrs by AlphaLISA based immuno assay; assay type: functional, cell-based
# [23] = system: NCI-H727; experiment: Downregulation of IGF1Rbeta in human NCI-H727 cells at 10 pM to 1 uM after 24 hrs by AlphaLISA based immuno assay; assay type: functional, cell-based
# [24] = system: Huh-7; experiment: Downregulation of FGFR4 in human HuH7 cells at 10 pM to 1 uM after 24 hrs by AlphaLISA based immuno assay; assay type: functional, cell-based
smiles,measurement,setting,value
CC[C@H](C)[C@H]1C(=O)N2CCC[C@H]2C(=O)O[C@H](C(C)(C)C)C[C@@H](C)C[C@@H](O)[C@H](C)C2=N[C@@H](CCC(=O)N[C@@H](Cc3ccc(OC)cc3)C(=O)N(C)[C@@H](C)C(=O)N1C)CS2,half-life,[1],> 24 h
CC[C@H](C)[C@H]1C(=O)N2CCC[C@H]2C(=O)O[C@H](C(C)(C)C)C[C@@H](C)C[C@@H](O)C(C)(C)C2=N[C@H](CCC(=O)N[C@@H](Cc3ccc(OC)cc3)C(=O)N(C)[C@@H](C)C(=O)N1C)CS2,IC50,[2],0.00147 µM
same,half-life,[1],> 24 h
same,IC50,[3],0.00335 µM
same,IC50,[4],0.00083 µM
same,IC50,[5],0.00255 µM
CC[C@H](C)[C@H]1C(=O)N2CCC[C@H]2C(=O)O[C@H](C(C)(C)C)C[C@@H](C)C[C@@H](O)C(C)(C)C2=N[C@@H](CCC(=O)N[C@@H](Cc3ccc(OC)cc3)C(=O)N(C)[C@@H](C)C(=O)N1C)CS2,IC50,[2],0.00199 µM
same,half-life,[1],> 24 h
CC[C@H](C)[C@H]1C(=O)N2CCC[C@H]2C(=O)O[C@H](C(C)(C)C)C[C@@H](C)C[C@@H](O)[C@H](C)C2=N[C@H](CCC(=O)N[C@@H](Cc3ccc(OC)cc3)C(=O)N(C)[C@@H](C)C(=O)N1C)CS2,half-life,[1],> 24 h
C#Cc1cccc(Nc2ncnc3cc(OCCOC)c(OCCOC)cc23)c1 [ERLOTINIB],inhibition,[6],inactive
same,IC50,[3],12.5 µM
same,IC50,[4],25 µM
same,IC50,[5],> 6.24 µM
CCN(CC)CCNC(=O)c1c(C)[nH]c(/C=C2\C(=O)Nc3ccc(F)cc32)c1C [SUNITINIB],inhibition,[7],Active
same,inhibition,[8],inactive
same,IC50,[3],7.98 µM
same,IC50,[4],4.71 µM
same,IC50,[5],10.1 µM
CC[C@H](C)[C@@H]1C(=O)N2CCC[C@@H]2C(=O)O[C@H](C(C)(C)C)C[C@@H](C)C[C@@H](O)C(C)(C)C2=N[C@H](CCC(=O)N[C@@H](Cc3ccc(OC)cc3)C(=O)N(C)[C@@H](C)C(=O)N1C)CS2,inhibition,[9],Dose-dependent effect
same,Activity,[10],Active
same,Activity,[11],Active
same,Activity,[12],Active
same,Activity,[13],Active
same,inhibition,[14],Active
same,inhibition,[15],Active
same,inhibition,[16],Active
same,inhibition,[17],Active
same,inhibition,[18],Active
same,inhibition,[19],Active
same,Activity,[20],Active
same,Activity,[21],Active
same,Activity,[22],Active
same,Activity,[23],Active
same,Activity,[24],Active
COc1cc2nccc(Oc3ccc(NC(=O)C4(C(=O)Nc5ccc(F)cc5)CC4)cc3)c2cc1OC [CABOZANTINIB],inhibition,[6],inactive
same,IC50,[3],8.46 µM
same,IC50,[4],4.35 µM
same,IC50,[5],14 µM
